Data: patent US8192962B2, “Processes for detecting toxic substances” (Daikin Industries, Ltd., priority 2001, dated 2012)

Tested on: Metabolism protein genes
Experiment: DNA chip mRNA expression in yeast, metabolism protein genes (Table 7)
Assay type: cell-based, Saccharomyces cerevisiae S288C
In short: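 Chemical exposure: 2 h, log-phase S. cerevisiae S288C, YPD, 25° C., dose set to inhibit growth without death. Profiling: mRNA labeled by reverse transcription with Cy3- or Cy5-dUTP, hybridized to whole-genome array. Output: fluorescence ratio against untreated culture.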

C=CC=O [(14), acrolein]
The level of expressed mRNA in the presence of chemical substance/The level of expressed mRNA in the absence of chemical substance (yeast gene YAL012W): 0.9
The level of expressed mRNA in the presence of chemical substance/The level of expressed mRNA in the absence of chemical substance (yeast gene YAL038W): 0.5
level of expressed mRNA in the presence/in the absence of chemical substance (yeast gene YBR003W): 0.8
level of expressed mRNA in the presence/in the absence of chemical substance (yeast gene YBR011C): 0.9
level of expressed mRNA in the presence/in the absence of chemical substance (yeast gene YBR020W): 1.0
The level of expressed mRNA in the presence of chemical substance/The level of expressed mRNA in the absence of chemical substance (yeast gene YBR023C): 0.8
The level of expressed mRNA in the presence of chemical substance/The level of expressed mRNA in the absence of chemical substance (yeast gene YBR029C): 0.9
The level of expressed mRNA in the presence of chemical substance/The level of expressed mRNA in the absence of chemical substance (yeast gene YBR068C): 1.8
The level of expressed mRNA in the presence of chemical substance/The level of expressed mRNA in the absence of chemical substance (yeast gene YBR183W): 1.3
The level of expressed mRNA in the presence of chemical substance/The level of expressed mRNA in the absence of chemical substance (yeast gene YBR222C): 0.5
The level of expressed mRNA in the presence of chemical substance/The level of expressed mRNA in the absence of chemical substance (yeast gene YBR256C): 5.6
The level of expressed mRNA in the presence of chemical substance/The level of expressed mRNA in the absence of chemical substance (yeast gene YCL009C): 0.7
The level of expressed mRNA in the presence of chemical substance/The level of expressed mRNA in the absence of chemical substance (yeast gene YCL064C): 0.8
level of expressed mRNA in the presence/in the absence of chemical substance (yeast gene YCR010C): 1.2
level of expressed mRNA in the presence/in the absence of chemical substance (yeast gene YCR034W): 0.6
The level of expressed mRNA in the presence of chemical substance/The level of expressed mRNA in the absence of chemical substance (yeast gene YCR048W): 0.9
The level of expressed mRNA in the presence of chemical substance/The level of expressed mRNA in the absence of chemical substance (yeast gene YCR098C): 1.1
The level of expressed mRNA in the presence of chemical substance/The level of expressed mRNA in the absence of chemical substance (yeast gene YDR019C): 1.6
level of expressed mRNA in the presence/in the absence of chemical substance (yeast gene YDR050C): 1.2
level of expressed mRNA in the presence/in the absence of chemical substance (yeast gene YDR073W): 1.2
level of expressed mRNA in the presence/in the absence of chemical substance (yeast gene YDR123C): 0.7
level of expressed mRNA in the presence/in the absence of chemical substance (yeast gene YDR178W): 1.5
level of expressed mRNA in the presence/in the absence of chemical substance (yeast gene YDR277C): 1.3
level of expressed mRNA in the presence/in the absence of chemical substance (yeast gene YDR284C): 1.3
level of expressed mRNA in the presence/in the absence of chemical substance (yeast gene YDR345C): 0.8
The level of expressed mRNA in the presence of chemical substance/The level of expressed mRNA in the absence of chemical substance (yeast gene YDR380W): 0.6
level of expressed mRNA in the presence/in the absence of chemical substance (yeast gene YDR400W): 0.9
level of expressed mRNA in the presence/in the absence of chemical substance (yeast gene YDR408C): 0.9
level of expressed mRNA in the presence/in the absence of chemical substance (yeast gene YDR483W): 0.8
The level of expressed mRNA in the presence of chemical substance/The level of expressed mRNA in the absence of chemical substance (yeast gene YDR497C): 0.6
The level of expressed mRNA in the presence of chemical substance/The level of expressed mRNA in the absence of chemical substance (yeast gene YDR502C): 0.8
The level of expressed mRNA in the presence of chemical substance/The level of expressed mRNA in the absence of chemical substance (yeast gene YDR516C): 0.7
level of expressed mRNA in the presence/in the absence of chemical substance (yeast gene YEL063C): 0.8
level of expressed mRNA in the presence/in the absence of chemical substance (yeast gene YER015W): 1.1
The level of expressed mRNA in the presence of chemical substance/The level of expressed mRNA in the absence of chemical substance (yeast gene YER026C): 1.1
The level of expressed mRNA in the presence of chemical substance/The level of expressed mRNA in the absence of chemical substance (yeast gene YER053C): 1.3
The level of expressed mRNA in the presence of chemical substance/The level of expressed mRNA in the absence of chemical substance (yeast gene YER069W): 1.3
level of expressed mRNA in the presence/in the absence of chemical substance (yeast gene YER081W): 1.6
The level of expressed mRNA in the presence of chemical substance/The level of expressed mRNA in the absence of chemical substance (yeast gene YER096W): 3.1
level of expressed mRNA in the presence/in the absence of chemical substance (yeast gene YER120W): 0.9
The level of expressed mRNA in the presence of chemical substance/The level of expressed mRNA in the absence of chemical substance (yeast gene YER178W): 0.9
level of expressed mRNA in the presence/in the absence of chemical substance (yeast gene YFL011W): 0.8
The level of expressed mRNA in the presence of chemical substance/The level of expressed mRNA in the absence of chemical substance (yeast gene YFL014W): 7.3
The level of expressed mRNA in the presence of chemical substance/The level of expressed mRNA in the absence of chemical substance (yeast gene YFL030W): 0.8
The level of expressed mRNA in the presence of chemical substance/The level of expressed mRNA in the absence of chemical substance (yeast gene YFL031W): 0.4
The level of expressed mRNA in the presence of chemical substance/The level of expressed mRNA in the absence of chemical substance (yeast gene YFL056C): 7.8
The level of expressed mRNA in the presence of chemical substance/The level of expressed mRNA in the absence of chemical substance (yeast gene YFL057C): 23.4
The level of expressed mRNA in the presence of chemical substance/The level of expressed mRNA in the absence of chemical substance (yeast gene YFR047C): 1.9
level of expressed mRNA in the presence/in the absence of chemical substance (yeast gene YGL012W): 0.8
The level of expressed mRNA in the presence of chemical substance/The level of expressed mRNA in the absence of chemical substance (yeast gene YGL022W): 0.5
level of expressed mRNA in the presence/in the absence of chemical substance (yeast gene YGL115W): 1.2
level of expressed mRNA in the presence/in the absence of chemical substance (yeast gene YGL205W): 1.0
The level of expressed mRNA in the presence of chemical substance/The level of expressed mRNA in the absence of chemical substance (yeast gene YGL209W): 1.6
The level of expressed mRNA in the presence of chemical substance/The level of expressed mRNA in the absence of chemical substance (yeast gene YGL248W): 1.3
The level of expressed mRNA in the presence of chemical substance/The level of expressed mRNA in the absence of chemical substance (yeast gene YGR037C): 1.5
The level of expressed mRNA in the presence of chemical substance/The level of expressed mRNA in the absence of chemical substance (yeast gene YGR055W): 1.2
level of expressed mRNA in the presence/in the absence of chemical substance (yeast gene YGR096W): 1.2
level of expressed mRNA in the presence/in the absence of chemical substance (yeast gene YGR191W): 0.7
The level of expressed mRNA in the presence of chemical substance/The level of expressed mRNA in the absence of chemical substance (yeast gene YGR194C): 1.0
level of expressed mRNA in the presence/in the absence of chemical substance (yeast gene YGR204W): 0.5
The level of expressed mRNA in the presence of chemical substance/The level of expressed mRNA in the absence of chemical substance (yeast gene YGR256W): 1.1
The level of expressed mRNA in the presence of chemical substance/The level of expressed mRNA in the absence of chemical substance (yeast gene YGR282C): 1.0
level of expressed mRNA in the presence/in the absence of chemical substance (yeast gene YGR288W): 1.1
level of expressed mRNA in the presence/in the absence of chemical substance (yeast gene YHR025W): 0.6
The level of expressed mRNA in the presence of chemical substance/The level of expressed mRNA in the absence of chemical substance (yeast gene YHR111W): 1.7
level of expressed mRNA in the presence/in the absence of chemical substance (yeast gene YHR123W): 0.8
The level of expressed mRNA in the presence of chemical substance/The level of expressed mRNA in the absence of chemical substance (yeast gene YHR137W): 0.8
The level of expressed mRNA in the presence of chemical substance/The level of expressed mRNA in the absence of chemical substance (yeast gene YHR174W): 0.6
The level of expressed mRNA in the presence of chemical substance/The level of expressed mRNA in the absence of chemical substance (yeast gene YHR176W): 1.3
level of expressed mRNA in the presence/in the absence of chemical substance (yeast gene YHR210C): 1.0
level of expressed mRNA in the presence/in the absence of chemical substance (yeast gene YIL006W): 1.0
The level of expressed mRNA in the presence of chemical substance/The level of expressed mRNA in the absence of chemical substance (yeast gene YIL045W): 1.6
The level of expressed mRNA in the presence of chemical substance/The level of expressed mRNA in the absence of chemical substance (yeast gene YIL107C): 1.6
The level of expressed mRNA in the presence of chemical substance/The level of expressed mRNA in the absence of chemical substance (yeast gene YIL154C): 0.9
The level of expressed mRNA in the presence of chemical substance/The level of expressed mRNA in the absence of chemical substance (yeast gene YIL155C): 1.3
The level of expressed mRNA in the presence of chemical substance/The level of expressed mRNA in the absence of chemical substance (yeast gene YIL167W): 1.4
The level of expressed mRNA in the presence of chemical substance/The level of expressed mRNA in the absence of chemical substance (yeast gene YIR034C): 1.2
The level of expressed mRNA in the presence of chemical substance/The level of expressed mRNA in the absence of chemical substance (yeast gene YIR036C): 1.2
The level of expressed mRNA in the presence of chemical substance/The level of expressed mRNA in the absence of chemical substance (yeast gene YJL031C): 3.0
The level of expressed mRNA in the presence of chemical substance/The level of expressed mRNA in the absence of chemical substance (yeast gene YJL068C): 1.5
The level of expressed mRNA in the presence of chemical substance/The level of expressed mRNA in the absence of chemical substance (yeast gene YJL088W): 2.0
The level of expressed mRNA in the presence of chemical substance/The level of expressed mRNA in the absence of chemical substance (yeast gene YJL099W): 1.8
level of expressed mRNA in the presence/in the absence of chemical substance (yeast gene YJL121C): 0.9
level of expressed mRNA in the presence/in the absence of chemical substance (yeast gene YJL167W): 0.9
The level of expressed mRNA in the presence of chemical substance/The level of expressed mRNA in the absence of chemical substance (yeast gene YJL172W): 0.9
level of expressed mRNA in the presence/in the absence of chemical substance (yeast gene YJL216C): 1.1
The level of expressed mRNA in the presence of chemical substance/The level of expressed mRNA in the absence of chemical substance (yeast gene YJL219W): 1.1
level of expressed mRNA in the presence/in the absence of chemical substance (yeast gene YJR077C): 0.7
The level of expressed mRNA in the presence of chemical substance/The level of expressed mRNA in the absence of chemical substance (yeast gene YJR137C): 1.2
level of expressed mRNA in the presence/in the absence of chemical substance (yeast gene YJR143C): 0.6
The level of expressed mRNA in the presence of chemical substance/The level of expressed mRNA in the absence of chemical substance (yeast gene YJR148W): 1.3
The level of expressed mRNA in the presence of chemical substance/The level of expressed mRNA in the absence of chemical substance (yeast gene YJR155W): 9.4
The level of expressed mRNA in the presence of chemical substance/The level of expressed mRNA in the absence of chemical substance (yeast gene YKL035W): 0.6
